Experimental data as given in patent US10761087B2, “Choroidal neovascularization suppressor or drusen formation suppressor, and method for assessing or screening for same” (Link Genomics, Inc., priority 2015, dated 2020).
Entries after “also recorded” stand apart in the source; their conditions may differ. Where two headings read alike, the source gives them in different places.

Assays:
[1] = cited from earlier work
VEGF = test: Change in expression of VEGF mRNA (real-time PCR) in EMT-induced RPE cells; format: cell-based, human; details: EMT-induced ARPE-19, 48 hours, compound at Cmax, ½ of Cmax or ¼ of Cmax
Procedure: (§1) RPE cells (ARPE-19) were seeded on a plate, and incubated for 5 days at 37° C. […] Each compound was added in a concentration of Cmax, ½ of Cmax or ¼ of Cmax. As a control, a sample to which a compound to be assessed (test drug) is not added was used. The collected cells were washed with PBS, and 350 μL of an RLT buffer was added to prepare a lysate for RNA extraction. Total RNA was extracted from the lysate using an RNeasy Micro kit (QIAGEN, #74004), and from 2 μg of the obtained RNA, cDNA was prepared using a SuperScript III First-Strand Synthesis SuperMix for qRT-PCR (Invitrogen, #11752-250). Using 50 ng of the obtained cDNA as a template, a real-time PCR (ABI Prism 7500 Sequence Detection System) was conducted according to the manufacturer's protocol, and expression of mRNA of each gene was quantified. Specific primers for respective genes were purchased from Invitrogen. Ct (Threshold Cycle) value of each gene was calculated as a percentage to a non-treated sample after normalization by endogenous control. For each result, a significant test (Student t test) was conducted, and when p<0.05, the result was marked with “*”, and when p<0.01, the result was marked with “**”.
The results are shown in FIG. 16 or FIG. 17, respectively.
The VEGF suppressive effect was assessed using the cell model as described above in the same manner as in Test example 2-3. The results are shown in FIG. 18 to FIG. 20, respectively.

RPE cells (ARPE-19) = test: Focus (drusen-like structure) formation suppression in EMT induction model of RPE cells; format: cell-based, human; details: Homo sapiens, RPE; Table 2; same manner as Test example 6-1; read-out: IC50 (Focus formation suppressing rate, EMT suppressive effect)
Procedure: RPE cells (ARPE-19) were seeded on a plate, and incubated for 5 days at 37° C. […] As a control of EMT induction, a sample to which a compound to be assessed (test drug) is not added was used. After 48 hours from EMT induction, the cells were fixed by treating with a 4% paraformaldehyde solution for 30 minutes at room temperature, and then washed three times with PBS. The cells were treated with a 0.2% Triton-X/PBS solution for 5 minutes, and washed three times with PBS. […] The fluorescent-stained cells were imaged by using an Image Express Micro (available from Molecular Devices), and digitized by using a MetaXpress2.0 (available from Molecular Devices). By analyzing the degree of formation of Focus (Focus level) from the numerical data, a Focus formation suppressing rate was calculated according to the following Formula 1 on the basis of the numerical value at the time of no addition of a compound, and the EMT suppressive effect in each compound was verified. The degree of formation of Focus (Focus level) was determined according to the number and the volume of Focus as indexes.
IC50 in the table was calculated using the following Formula 2.
A: Higher concentration sandwiching 50%
B: Lower concentration sandwiching 50%
C: Inhibition rate at lower concentration sandwiching 50%
D: Inhibition rate at higher concentration sandwiching 50%
RPE cells (ARPE-19) were seeded on a plate, and incubated for 5 days at 37° C. […] As a control of EMT induction, a sample to which a compound to be assessed (test drug) is not added was used. The cells after observation were fixed by treating with a 4% paraformaldehyde solution for 30 minutes at room temperature, and then washed three times with PBS. The cells were treated with a 0.2% Triton-X/PBS solution for 5 minutes, and washed three times with PBS. […] The fluorescent-stained cells were imaged by using an Image Express Micro (available from Molecular Devices), and digitized by using a MetaXpress2.0 (available from Molecular Devices). By analyzing the degree of formation of Focus from the numerical data, a Focus formation suppressing rate was calculated on the basis of the case without addition of a compound and the case without EMT induction, and the EMT suppressive effect in each compound was verified. […] After washing three times with methanol, the cells were dried for 3 hours at room temperature. The dried cells were observed under a microscope.

[2] = tested on: EMT markers (mesenchymal markers, ECM) in RPE cells (ARPE-19); test: Change in expression of EMT markers (real-time PCR) in EMT-induced RPE cells; format: cell-based, human
Procedure: RPE cells (ARPE-19) were seeded on a plate, and incubated for 5 days at 37° C. For the RPE cells, EMT was induced in the conditions described in Test example 1-1, and respective compounds (oxaprozin, epalrestat, zafirlukast, amlexanox, zaltoprofen) were added simultaneously, and the cells were collected after 48 hours from induction of EMT. As a control, a sample to which a compound to be assessed (test drug) is not added was used. The collected cells were washed with PBS, and 350 μL of an RLT buffer was added to prepare a lysate for RNA extraction. The respective compounds were used in the following concentrations. Oxaprozin: 300 μM, epalrestat: 30 μM, zafirlukast: 3 μM, amlexanox: 30 μM, zaltoprofen: 30 μM. Total RNA was extracted from the lysate using an RNeasy Micro kit (QIAGEN, #74004), and from 2 μg of the obtained RNA, cDNA was prepared using a SuperScript III First-Strand Synthesis SuperMix for qRT-PCR (Invitrogen, #11752-250). Using 50 ng of the obtained cDNA as a template, a real-time PCR (ABI Prism 7500 Sequence Detection System) was conducted according to the manufacturer's protocol, and expression of mRNA of each gene was quantified. Specific primers for respective genes were purchased from Invitrogen. Ct (Threshold Cycle) value of each gene was calculated as a percentage to a non-treated sample after normalization by endogenous control.
Five compounds (flufenamic acid aluminum (addition concentration: 28 μM (Cmax)), mefenamic acid (addition concentration: 39 μm (Cmax)), sulindac (addition concentration: 100 μM), tiaprofenic acid (addition concentration: 1000 μM), and seratrodast (addition concentration: 31 μM (Cmax))) were assessed for change in expression of EMT markers in the same manner as in Test example 2-1. The results are shown in FIG. 8 to FIG. 12, respectively.
as §1
RPE cells (ARPE-19) were seeded on a plate, and incubated for 5 days at 37° C. For the RPE cells, EMT was induced in the conditions described in Test example 5-1, and the five representative compounds (oxaprozin, epalrestat, zafirlukast, amlexanox, zaltoprofen) were added simultaneously, and the cells were collected after 48 hours from induction of EMT. As a control, a sample to which a compound to be assessed (test drug) is not added was used. The collected cells were washed with PBS, and 350 μL of an RLT buffer was added to prepare a lysate for RNA extraction. Total RNA was extracted from the lysate using an RNeasy Micro kit (QIAGEN, # 74004), and from 2 μg of the obtained RNA, cDNA was prepared using a SuperScript III First-Strand Synthesis SuperMix for qRT-PCR (Invitrogen, # 11752-250). […]

In the case of `O=C(O)c1ccccc1Nc1cccc(C(F)(F)F)c1` [flufenamic acid aluminum], the Cmax ([1]; Pharmaceutical Interview Form, single-dose administration, read-out: Cmax) is given as 27.9 µM, the Cmax ([1]; quoted in Test examples 2-3, 2-4, 2-5, read-out: Cmax (as quoted in the VEGF test examples)) is given as 27.9 µM and the “Enhancement of VEGF mRNA expression by EMT induction” value (VEGF) is given as “suppress enhancement of mRNA expression of VEGF”. For the same compound, the “Enhancement of VEGF mRNA expression by EMT induction” value (VEGF; listed as Flufenamic acid aluminum) was “suppressed enhancement of VEGF expression in a concentration dependent manner”, the IC50 (RPE cells (ARPE-19)) was 4.4 µM and the “Enhancement of expression of Fibronectin, Snail and vimentin (mesenchymal markers)” value ([2]; EMT-induced ARPE-19, 48 hours, compound at Cmax, ½ of Cmax or ¼ of Cmax) was “suppressed enhancement of expression of these in a concentration dependent manner”. The “Expression of EMT markers at the time of EMT induction (FIG. 8 to FIG. 12)” value ([2]; flufenamic acid aluminum 28 μM, mefenamic acid 39 μm, sulindac 100 μM, tiaprofenic acid 1000 μM, seratrodast 31 μM) was “significantly suppress expression of EMT markers at the time of EMT induction; also recorded: lower expression of EMT markers at the time of EMT induction”.
